Source: patent publication US8859587B2, “(2E)-3-phenyl-N-[2,2,2-Trifluoro-1-[[8-quinolineamino)thiomethyl]amino]ethyl]-2-acrylamide and pharmaceutical uses thereof” (Chinese PLA General Hospital, priority 2010, dated 2014)
Several values for one entry are separate records, joined by “and”; a condition that tells them apart may be missing. Equal entries are not always repeated. Marks after values point to notes of the source that are not given here.

Legend:
Format in all cases: cell-based, Wistar rats
[1] = system: cardiac muscle cells induced by Tunicamycin (TM); assay: Survival rate of TM-induced cardiac muscle cells detected by MTT method; conditions: TM 5 μg/ml alone, MTT
Description: The separation and culture of cardiomyocyte refer to the method of differential adhesion separation (Kreider, A. Messing, H. Doan, S. U. Kim, R. P. Lisak and D. E. Pleasure, Enrichment of Schwann cell cultures from neonatal rat sciatic nerve by differential adhesion, Brain Res 2 (1981), pp. 433-444.), Wistar neonate rats newly born within 24 h were used to obtain primary cardiac muscle cells.
The separated cardiac muscle cells were inoculated in an amount of 10^4 cells per well to a 96-well plate, and the volume of each well was 100 μl (marginal wells were filled with sterile PBS). […] After continuous inoculation, each well was added with 20 μl of MTT solution (5 mg/ml, formulated with PBS (pH=7.4), i.e., 0.5% MTT), and the cultivation was continued for 4 h. After the end of cultivation, culture medium in wells was carefully sucked out. Each well was added with 150 μl of DMSO, shaken at a low speed in a shaking table for 10 min, so that the crystal was sufficiently dissolved. The optical density (OD) value of each well was measured at wavelength of 490 nm by enzyme-linked immunoassay instrument, and each well was repeatedly measured for 3 times and the results were recorded. The cell survival rate at each time point was calculated according to: […], and a cell growth curve was drawn by using time as abscissa and optical density as ordinate.

[2] = system: caspase-12 and cleaved caspase-12; assay: Western blot of caspase-12 and cleaved caspase-12 in TM-induced cardiac muscle cells; conditions: TM 5 μg/ml induction alone
Description: (12000 rpm×10 min), collected supernatant. Nitrocellulose membrane was dipped in a transferring buffer for 15-20 min in advance. Sampled in 50 μg protein/lane, subjected to 10% polyacrylamide gel SDS-PAGE electrophoretic separation, the gel was then tiled in electrotransferring clamp, in which sponge, filter paper, gel, nitrocellulose membrane, filter paper and sponge were mounted from negative electrode to positive electrode in order. Constant current 350 mA, electrotransferred for 45 min. Electrotransferring membrane to […], the nitrocellulose membrane was taken out, the membrane was washed with TBST for 2 min, sealed with 5% defatted milk powder at room temperature for 1 h, added with first antibody (1:1000) and incubated at 4° C. overnight, the membrane was washed with TBST, 3 times×5 min, then […] second antibody was added, incubated at room temperature for 1 h, washed with TBST, 3 times×5 min, soaked separately with TSM1 and TSM2 for 5 min and 10 min, developed with chromogenic substrates 6.6 μl NBT and 3.3 μl BCIP dissolved in 1 ml of TSM2, after bonds become clear, the reaction was terminated by washing with water. After the end of development, the records were stored by scanning or taking photos.

[3] = system: primary cardiac muscle cells induced by TM; assay: Cardiomyocyte apoptosis induced by TM, AnnexinV-FITC flow cytometer; conditions: TM 5 μg/ml alone, 24 h
Description: (§1) The primary cardiac muscle cells obtained by the method according to the culture method of primary cardiac muscle cells of Example 1 were added with tunicamycin (TM) on the 4th day to perform interference test. The cells were randomly divided into 5 groups: solvent control group (DMSO), TM interference group (5 μg/ml), Compound of Formula I+TM interference group (10 μM+5 μg/ml), Compound of Formula I interference group ([…]+5 μg/ml), Compound of Formula I interference group ([…]+5 μg/ml).
it is 24 h after drug interference, the cells were treated by the method of AnnexinV-FITC apoptosis kit, and the apoptosis was detected within 1 h by using a flow cytometer (BD ACScalibur, US Becton-Dickinson Company). For each sample, 14000 cells were collected and analyzed, the test was repeated for 3 times, and the average value was used as a result.

[4] = system: primary cardiac muscle cells induced by TM; assay: Cardiomyocyte apoptosis induced by TM, TUNEL detection; conditions: TM 5 μg/mL alone, 24 h, n = 6
Description: as §1
It was 24 h after drug interference, the apoptotic cells were detected by terminal deoxynucleotidyl transferase-mediated biotinylated UTP nick end labeling (TUNEL) method, and the cells were treated according to the specification of kit. The cells treated with 0.1 mg/ml DNase I and growing on a glass slide were used as positive control. 5 or more visual fields were randomly selected under light microscope, the apoptotic cells (brown yellow granules seen in nucleus) among the cells were counted. Apoptosis rat=(number of positively stained nuclei/number of all nuclei)×100%.

Substance: Tunicamycin [TM, reference compound]
- Cell survival rate (%) [1]: 58.8699 ± 10.7785 %
- expression of Cleaved caspase-12 [2]: obviously expressed
- Cardiomyocyte apoptosis rate detected by flow cytometer (%) [3]: 29.98% and 29.98 ± 1.22^a %
- TUNEL detection (%) cardiomyocyte apoptosis rate [4]: 30.84 ± 1.26 ^a %
